{
  "source": "paper PMC12431657",
  "about": "“Discovery and mechanistic insights of dibenzoylmethane as a broad spectrum inhibitor of coronavirus” (PLOS Pathogens, 2025)",
  "key": {"HCoV-OC43": {"system": "HCoV-OC43", "assay": "Immunoplaque assay, viral titres of organs and tissues of infected mice", "format": "in vivo, BALB/c suckling mice", "description": "Next, we characterized the therapeutic efficacy of the DBM in vivo. In this experiment, randomized 5–6-day-old suckling BALB/c mice were orally treated with DBM at concentrations of 500, 200, and 100 mpk 2 hours after being intranasally challenged with HCoV-OC43. Menstruum and VV116 were used as negative and positive controls, respectively. All the mice were sacrificed on Day 5 for organ and sample collection (Fig 4A). The body weight changes of the mice were continuously monitored during the trial. Infection with HCoV-OC43 led to body weight loss in the vehicle-treated mice on Day 5 (Fig 4B). […] The number of viral RNA copies from the brain, spinal cord, lungs, and kidneys were analysed via qRT-PCR, which targeted the HCoV-OC43 nucleocapsid gene sequence. On Day 5, the number of viral RNA copies in the vehicle-treated group reached approximately 10^12 copies in the brain, 10^9 copies in the spinal cord, 10^8 copies in the lungs, and 10^6 copies in the kidney (Fig 4C). In the mice treated with DBM at 500 mpk, the number of viral RNA copies within these organs and tissues was reduced by 1–3 logs compared with the vehicle-treated group. […] Sections of mouse brains, spinal cords, lungs, and kidneys were subjected to immunofluorescence staining with antibodies targeting HCoV-OC43 nucleocapsid proteins.\nFig 4 In vivo antiviral efficacy of DBM in 5-day-old BALB/c suckling mice infected with HCoV-OC43. A) Schematic of the experimental design for evaluating DBM in suckling mice. Each group consisted of 5-6 suckling mice. The schematic was created by the authors using Adobe Illustrator 2022. B) Body weight changes of mice during the experiment. Body weights were recorded daily and all mice were euthanised on the fifth day after infection. C) Viral RNA copies in the brains, spinal cords, lungs, and kidneys of mice collected on Day 5. After grinding and centrifuging the samples with DMEM, viral copies from the supernatants were tested by qRT-PCR. D) Viral titres in homogenised organs and tissues collected from mice on Day 5. E) Immunofluorescence staining of brain and lung sections from mice treated with different regimens. HCoV-OC43 nucleocapsid proteins were detected by immunofluorescence (green). Cell nuclei were stained with DAPI (blue). Data were statistically analyzed with Student’s T test. *: p ≤ 0.05, **: p ≤ 0.01, ***: p ≤ 0.001, ****: p ≤ 0.0001; ns, not significant. The experiments were repeated three times independently with similar results. […] No numeric values are printed in any panel, and nothing was read off the bars, points or curves.\nRD cells were preseeded onto 24-well plates and incubated at 37 °C for 24 hours until they reached 90% confluence. The supernatants from the homogenized organs and tissues were serially diluted 10-fold in DMEM. Subsequently, 50 μL of each dilution was added to the wells. Following a 1-hour incubation at 37 °C, the inoculum was removed, and 200 μL of overlay medium (DMEM containing 2% FBS and 1.5% carboxymethyl cellulose) was added to the wells. Four days postinfection, the cells were fixed with 4% paraformaldehyde for 2 hours, followed by three washes with phosphate-buffered saline (PBS). The fixed cells were then permeabilized with 0.5% Triton X-100 for 30 minutes and blocked with 5% bovine serum albumin (BSA) for 30 minutes at room temperature. The cells were subsequently incubated with anti-HCoV-OC43 nucleocapsid protein rabbit serum (ABclonal, SA00001–2) as the primary antibody and HRP-conjugated anti-rabbit IgG (Proteintech) as the secondary antibody, followed by staining with a DAB staining kit (TIANGEN, PA110)."}, "caspase-6": {"biological_target": "T1, caspase-6 (Homo sapiens, UniProt P55212)", "T1 construct": "endogenous in cells", "T1 sequence (P55212 24-293)": "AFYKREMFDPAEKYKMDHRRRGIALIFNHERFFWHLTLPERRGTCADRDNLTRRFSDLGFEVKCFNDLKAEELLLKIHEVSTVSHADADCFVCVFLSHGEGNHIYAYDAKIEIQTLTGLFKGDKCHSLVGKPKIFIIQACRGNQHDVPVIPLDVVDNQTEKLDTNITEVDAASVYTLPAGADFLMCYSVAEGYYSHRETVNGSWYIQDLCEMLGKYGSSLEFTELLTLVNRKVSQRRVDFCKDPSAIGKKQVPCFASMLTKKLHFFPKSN", "format": "cell-based"}, "mammary tumorigenesis": {"system": "mammary tumorigenesis", "parameters": "method as in PMID 11403916", "details": "dietary DBM, mice; cited from earlier work"}},
  "note": "“And” between values parts separate entries of the source, which are not always exact repeats. Equal entries are not always repeated. Where two headings read alike, the source gives them in different places.",
  "data": [
    {"smiles": "O=C(CC(=O)c1ccccc1)c1ccccc1", "note": "[DBM, dibenzoylmethane]", "values": [
      {"measurement": "Viral load in tissue (Fig4D)", "setting": "HCoV-OC43; Brain, group G3 DIBEN100, individual mice", "result": "2.4E+06 and 2.9E+06 and 1.6E+06 and 1.9E+06 and 2.5E+06 and 2.3E+06"},
      {"measurement": "Viral load in tissue (Fig4D)", "setting": "HCoV-OC43; Brain, group G4 DIBEN200, individual mice", "result": "2.4E+05 and 2.9E+05 and 1.6E+05 and 2.0E+05 and 2.5E+05"},
      {"measurement": "Viral load in tissue (Fig4D)", "setting": "HCoV-OC43; Brain, group G5 DIBEN500, individual mice", "result": "5.0E+01 and 0.0E+00 and 3.1E+03"},
      {"measurement": "viral titres of the organs and tissues", "setting": "HCoV-OC43; DBM 500 mpk", "result": "led to a reduction in viral loads"},
      {"measurement": "Viral load in tissue (Fig4D)", "setting": "HCoV-OC43; Kidney, group G3 DIBEN100, individual mice", "result": "229.9 and 104.0 and 219.4 and 123.5 and 219.8 and 790.8"},
      {"measurement": "Viral load in tissue (Fig4D)", "setting": "HCoV-OC43; Kidney, group G4 DIBEN200, individual mice", "result": 0.0},
      {"measurement": "Viral load in tissue (Fig4D)", "setting": "HCoV-OC43; Kidney, group G5 DIBEN500, individual mice", "result": "84.6 and 0.0"},
      {"measurement": "Viral load in tissue (Fig4D)", "setting": "HCoV-OC43; Lung, group G3 DIBEN100, individual mice", "result": "0.0 and 160.4 and 76.7 and 2219.2 and 1455.2"},
      {"measurement": "Viral load in tissue (Fig4D)", "setting": "HCoV-OC43; Lung, group G4 DIBEN200, individual mice", "result": "275.5 and 0.0 and 394.7"},
      {"measurement": "Viral load in tissue (Fig4D)", "setting": "HCoV-OC43; Lung, group G5 DIBEN500, individual mice", "result": "0.0 and 290.3"},
      {"measurement": "Viral load in tissue (Fig4D)", "setting": "HCoV-OC43; Spinal Cord, group G3 DIBEN100, individual mice", "result": "1299.4 and 4131.1 and 125.4 and 477.6 and 568.4 and 1615.1"},
      {"measurement": "Viral load in tissue (Fig4D)", "setting": "HCoV-OC43; Spinal Cord, group G4 DIBEN200, individual mice", "result": "7747.0 and 4670.7 and 4797.6 and 4510.0 and 4954.8"},
      {"measurement": "Viral load in tissue (Fig4D)", "setting": "HCoV-OC43; Spinal Cord, group G5 DIBEN500, individual mice", "result": "0.0 and 113.9"},
      {"measurement": "activity of caspase-6 in treated cells", "setting": "caspase-6", "result": "decrease in the activity of caspase-6"},
      {"measurement": "Caspase-6 activity (Fig5J)", "setting": "caspase-6; time point 0, replicates", "result": "8.2 and 8.1 and 9.0"},
      {"measurement": "Caspase-6 activity (Fig5J)", "setting": "caspase-6; time point 2, replicates", "result": "11.9 and 12.2 and 11.5"},
      {"measurement": "Caspase-6 activity (Fig5J)", "setting": "caspase-6; time point 4, replicates", "result": "16.7 and 15.6 and 16.4"},
      {"measurement": "Caspase-6 activity (Fig5J)", "setting": "caspase-6; time point 6, replicates", "result": "12.2 and 13.5 and 13.6"},
      {"measurement": "Caspase-6 activity (Fig5J)", "setting": "caspase-6; time point 8, replicates", "result": "13.0 and 12.4 and 9.9"},
      {"measurement": "reduction of tumor incidence", "setting": "mammary tumorigenesis", "result": 97, "unit": "%"}
    ]}
  ]
}
